The structures appear in SMILES notation.

The target of the test is IRAK4 (Homo sapiens (Human), UniProt Q9NWZ3). The experiment in a line: IRAK4 Kinase Assay (IMAP fluorescence polarization). It is filed as biochemical. The following applies: 0.5 nM GST tagged IRAK4, 100 μM ATP, 100 nM fluorescent peptide substrate RP7030, 30 minutes at 25° C. The procedure, abridged: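 GST-tagged IRAK4 (0.5 nM) phosphorylates 100 nM fluorescent peptide with 100 μM ATP in 10 mM Tris pH 7.2, 1 mM MgCl2, 1 mM DTT, 0.01% Tween 20 for 30 min at 25 °C. Phosphorylation read as IMAP nanoparticle-binding fluorescence polarization after stop reagent.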
Sequence of IRAK4 (Q9NWZ3 whole entry): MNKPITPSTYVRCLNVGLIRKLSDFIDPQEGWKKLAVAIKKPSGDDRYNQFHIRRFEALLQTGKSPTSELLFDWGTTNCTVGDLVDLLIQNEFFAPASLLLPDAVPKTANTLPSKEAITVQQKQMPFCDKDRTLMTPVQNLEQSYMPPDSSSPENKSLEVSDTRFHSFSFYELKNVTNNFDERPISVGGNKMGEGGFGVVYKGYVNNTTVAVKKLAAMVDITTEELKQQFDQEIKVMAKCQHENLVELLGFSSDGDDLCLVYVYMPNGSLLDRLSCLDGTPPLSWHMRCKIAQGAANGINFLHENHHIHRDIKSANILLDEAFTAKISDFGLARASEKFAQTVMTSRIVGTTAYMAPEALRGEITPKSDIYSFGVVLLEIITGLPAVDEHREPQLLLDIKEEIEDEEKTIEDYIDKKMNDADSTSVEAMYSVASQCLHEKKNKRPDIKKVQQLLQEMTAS
(In general: In fluorescence polarisation assays a small probe gives low polarisation when free and higher when bound to something large.)
As a reminder, the IC50 is the concentration needed to halve the response being measured. Low readings indicate greater potency in that assay, high ones weaker potency in that assay. The compound `c1cc(-c2ccc3ncnc(N[C@H]4CC[C@H](N5CCOCC5)CC4)c3c2)c2cc[nH]c2c1` [Example 1-88, 6-(1H-indol-4-yl)-N-[trans-4-(morpholin-4-yl)cyclohexyl]quinazolin-4-amine] yielded an IC50 of 0.1 µM. This lies in the sub-micromolar range.

Compound `Cc1ncc(-c2ccc3ncnc(N[C@H]4CC[C@H](N5CCOCC5)CC4)c3c2)cn1` [Example 1-89, 6-(2-methylpyrimidin-5-yl)-N-[trans-4-(morpholin-4-yl)cyclohexyl]quinazolin-4-amine] yielded an IC50 of 0.018 µM.

Compound `FC(F)(F)c1ncc(-c2ccc3ncnc(N[C@H]4CC[C@@H](N5CCOCC5)CC4)c3c2)cn1` [Example 1-90, N-[cis-4-(morpholin-4-yl)cyclohexyl]-6-[2-(trifluoromethyl)pyrimidin-5-yl]quinazolin-4-amine] registered an IC50 of 0.169 µM.

Consider `c1nc(N[C@H]2CC[C@H](N3CCOCC3)CC2)c2cc(-c3cc[nH]n3)ccc2n1` [Example 1-91, N-[trans-4-(morpholin-4-yl)cyclohexyl]-6-(1H-pyrazol-3-yl)quinazolin-4-amine], for which half-maximal inhibition (IC50) required 0.02 µM.

Regarding `CS(=O)(=O)Nc1cncc(-c2ccc3ncnc(N[C@H]4CC[C@H](N5CCOCC5)CC4)c3c2)c1` [Example 1-92, N-[5-(4-{[trans-4-(morpholin-4-yl)cyclohexyl]amino}quinazolin-6-yl)pyridin-3-yl]methanesulfonamide], it took 0.024 µM to reach half-maximal inhibition (IC50).

Compound `Cc1cncc(-c2ccc3ncnc(N[C@H]4CC[C@H](N5CCOCC5)CC4)c3c2)c1` [Example 1-93, 6-(5-methylpyridin-3-yl)-N-[trans-4-(morpholin-4-yl)cyclohexyl]quinazolin-4-amine] gave an IC50 of 0.026 µM.

Compound `OCc1cncc(-c2ccc3ncnc(N[C@H]4CC[C@H](N5CCOCC5)CC4)c3c2)c1` [Example 1-94, [5-(4-{[trans-4-(morpholin-4-yl)cyclohexyl]amino}quinazolin-6-yl)pyridin-3-yl]methanol] displayed an IC50 of 0.01 µM.

Take `CC(C)(O)c1cncc(-c2ccc3ncnc(N[C@H]4CC[C@H](N5CCOCC5)CC4)c3c2)c1` [Example 1-95, 2-[5-(4-{[trans-4-(morpholin-4-yl)cyclohexyl]amino}quinazolin-6-yl)pyridin-3-yl]propan-2-ol]: the midpoint of inhibition, the IC50, lay at 0.33 µM. Compared with the last compound, the IC50 is about 33-fold higher.

On to `c1nc(N[C@H]2CC[C@H](N3CCOCC3)CC2)c2cc(-c3cnoc3)ccc2n1` [Example 1-96, 6-(isoxazol-4-yl)-N-[trans-4-(morpholin-4-yl)cyclohexyl]quinazolin-4-amine], for which the IC50 worked out at 0.009 µM. Compared with the last compound, the IC50 is about 37-fold lower.

For `Fc1cncc(-c2ccc3ncnc(N[C@H]4CC[C@H](N5CCOCC5)CC4)c3c2)c1` [Example 1-97, 6-(5-fluoropyridin-3-yl)-N-[trans-4-(morpholin-4-yl)cyclohexyl]quinazolin-4-amine], the IC50 worked out at 0.022 µM.

For `N#Cc1cncc(-c2ccc3ncnc(N[C@H]4CC[C@H](N5CCOCC5)CC4)c3c2)c1` [Example 1-98, 5-(4-{[trans-4-(morpholin-4-yl)cyclohexyl]amino}quinazolin-6-yl)pyridine-3-carbonitrile], the IC50 turned out to be 0.021 µM.

As to `Clc1cncc(-c2ccc3ncnc(N[C@H]4CC[C@H](N5CCOCC5)CC4)c3c2)c1` [Example 1-99, 6-(5-chloropyridin-3-yl)-N-[trans-4-(morpholin-4-yl)cyclohexyl]quinazolin-4-amine], the IC50 amounted to 0.011 µM.

`Oc1cc(-c2ccc3ncnc(N[C@H]4CC[C@H](N5CCOCC5)CC4)c3c2)cnc1Cl` [Example 1-100, 2-chloro-5-(4-{[trans-4-(morpholin-4-yl)cyclohexyl]amino}quinazolin-6-yl)pyridin-3-ol] gave an IC50 of 0.001 µM.

Take `CCOC(=O)c1cn(C)nc1-c1ccc2ncnc(N[C@H]3CC[C@H](N4CCOCC4)CC3)c2c1` [Example 2-1, Ethyl 1-methyl-3-(4-(((trans)-4-morpholinocyclohexyl)amino)quinazolin-6-yl)-1H-pyrazole-4-carboxylate]: half-maximal inhibition (IC50) was put at 6.03 µM. This IC50 is about 6000-fold higher than that of the compound before.

Take `Cc1nc(-c2ccc3ncnc(N[C@H]4CC[C@H](N5CCOCC5)CC4)c3c2)cs1` [Example 2-2, 6-(2-methyl-1,3-thiazol-4-yl)-N-(trans-4-morpholin-4-ylcyclohexyl)quinazolin-4-amine]: 0.092 µM corresponded to half-maximal inhibition (IC50).

In turn, `CC(C)c1nc(-c2ccc3ncnc(N[C@H]4CC[C@H](N5CCOCC5)CC4)c3c2)cs1` [Example 2-3, 6-[2-(1-methylethyl)-1,3-thiazol-4-yl]-N-(trans-4-morpholin-4-ylcyclohexyl)quinazolin-4-amine] came in with an IC50 of 0.39 µM.

`FC(F)(F)c1cncc(-c2ccc3ncnc(N[C@H]4CC[C@H](N5CCOCC5)CC4)c3c2)c1` [Example 2-4, N-(trans-4-morpholin-4-ylcyclohexyl)-6-[5-(trifluoromethyl)pyridin-3-yl]quinazolin-4-amine] gave an IC50 of 0.119 µM.

With `Oc1ncc(C(F)(F)F)cc1-c1ccc2ncnc(N[C@H]3CC[C@H](N4CCOCC4)CC3)c2c1` [Example 2-5, 3-{4-[(trans-4-morpholin-4-ylcyclohexyl)amino]quinazolin-6-yl}-5-(trifluoromethyl)pyridin-2-ol], the IC50 turned out to be 0.928 µM.

In turn, `Nc1cc(-c2ccc3ncnc(N[C@H]4CC[C@H](N5CCOCC5)CC4)c3c2)cnc1F` [Example 2-7, 6-(5-amino-6-fluoropyridin-3-yl)-N-(trans-4-morpholin-4-ylcyclohexyl)quinazolin-4-amine] came in with an IC50 of 0.001 µM. This IC50 lies about 930-fold lower than the previous one.

Consider `O=C(O)c1cccc(-c2ccc3ncnc(N[C@H]4CC[C@H](N5CCOCC5)CC4)c3c2)n1` [Example 2-8, 6-{4-[(trans-4-morpholin-4-ylcyclohexyl)amino]quinazolin-6-yl}pyridine-2-carboxylic acid], for which the concentration for half-maximal inhibition (IC50) came to 0.122 µM. This IC50 lies about 120-fold higher than the previous one.

The compound `Fc1c[nH]nc1-c1ccc2ncnc(N[C@H]3CC[C@H](N4CCOCC4)CC3)c2c1` [Example 2-9, 6-(4-fluoro-1H-pyrazol-3-yl)-N-(trans-4-morpholin-4-ylcyclohexyl)quinazolin-4-amine] had an IC50 of 0.012 µM.

`N#Cc1n[nH]cc1-c1ccc2ncnc(N[C@H]3CC[C@H](N4CCOCC4)CC3)c2c1` [Example 2-10, 4-{4-[(trans-4-morpholin-4-ylcyclohexyl)amino]quinazolin-6-yl}-1H-pyrazole-3-carbonitrile] gave an IC50 of 0.008 µM.

Turning to `N#Cc1nn[nH]c1-c1ccc2ncnc(N[C@H]3CC[C@H](N4CCOCC4)CC3)c2c1` [Example 2-11, 5-{4-[(trans-4-morpholin-4-ylcyclohexyl)amino]quinazolin-6-yl}-1H-1,2,3-triazole-4-carbonitrile], half-maximal inhibition (IC50) was put at 0.062 µM.

`Cn1cc(-c2ccc3ncnc(N[C@H]4CC[C@H](N5CCOCC5)CC4)c3c2)c(CO)n1` [Example 2-12, (1-methyl-4-{4-[(trans-4-morpholin-4-ylcyclohexyl)amino]quinazolin-6-yl}-1H-pyrazol-3-yl)methanol] registered an IC50 of 0.261 µM.

As to `Cn1nccc1-c1ccc2ncnc(N[C@H]3CC[C@H](N4CCOCC4)CC3)c2c1` [Example 2-13, 6-(1-methyl-1H-pyrazol-5-yl)-N-(trans-4-morpholin-4-ylcyclohexyl)quinazolin-4-amine], the IC50 is 0.324 µM. The IC50 values of the last two compounds are within 1.5-fold of each other.

Regarding `FC(F)(F)c1n[nH]cc1-c1ccc2ncnc(N[C@H]3CC[C@H](N4CCOCC4)CC3)c2c1` [Example 2-14, N-(trans-4-morpholin-4-ylcyclohexyl)-6-[3-(trifluoromethyl)-1H-pyrazol-4-yl]quinazolin-4-amine], the IC50 was determined as 0.08 µM.

Consider `Cn1nncc1-c1ccc2ncnc(N[C@H]3CC[C@H](N4CCOCC4)CC3)c2c1` [Example 2-15, 6-(1-methyl-1H-1,2,3-triazol-5-yl)-N-(trans-4-morpholin-4-ylcyclohexyl)quinazolin-4-amine], for which the IC50 amounted to 0.152 µM.

Compound `c1nc(N[C@H]2CC[C@H](N3CCOCC3)CC2)c2cc(-c3cnc4c(c3)NCC4)ccc2n1` [Example 2-16, 6-(2,3-dihydro-1H-pyrrolo[3,2-b]pyridin-6-yl)-N-[trans-4-(morpholin-4-yl)cyclohexyl]quinazolin-4-amine] showed an IC50 of 0.048 µM.

In turn, `N#Cc1sccc1-c1ccc2ncnc(N[C@H]3CC[C@H](N4CCOCC4)CC3)c2c1` [Example 2-17, 3-(4-{[trans-4-(morpholin-4-yl)cyclohexyl]amino}quinazolin-6-yl)thiophene-2-carbonitrile] displayed an IC50 of 0.041 µM.

Regarding `N#Cc1cscc1-c1ccc2ncnc(N[C@H]3CC[C@H](N4CCOCC4)CC3)c2c1` [Example 2-18, 4-(4-{[trans-4-(morpholin-4-yl)cyclohexyl]amino}quinazolin-6-yl)thiophene-3-carbonitrile], the IC50 amounted to 0.052 µM. The IC50 values of the last two compounds are within 1.5-fold of each other.

The compound `Cc1nc[nH]c1-c1ccc2ncnc(N[C@H]3CC[C@H](N4CCOCC4)CC3)c2c1` [Example 2-19, 6-(4-methyl-1H-imidazol-5-yl)-N-[trans-4-(morpholin-4-yl)cyclohexyl]quinazolin-4-amine] gave an IC50 of 0.184 µM.

`Cc1n[nH]cc1-c1ccc2ncnc(N[C@H]3CC[C@H](N4CCOCC4)CC3)c2c1` [Example 2-20, 6-(3-methyl-1H-pyrazol-4-yl)-N-[trans-4-(morpholin-4-yl)cyclohexyl]quinazolin-4-amine] came in with an IC50 of 0.022 µM.

`Cc1c(-c2ccc3ncnc(N[C@H]4CC[C@H](N5CCOCC5)CC4)c3c2)cnn1C` [Example 2-21, 6-(1,5-dimethyl-1H-pyrazol-4-yl)-N-[trans-4-(morpholin-4-yl)cyclohexyl]quinazolin-4-amine] showed an IC50 of 0.126 µM.

Turning to `Cc1c[nH]c(-c2ccc3ncnc(N[C@H]4CC[C@H](N5CCOCC5)CC4)c3c2)n1` [Example 2-22, 6-(4-methyl-1H-imidazol-2-yl)-N-[trans-4-(morpholin-4-yl)cyclohexyl]quinazolin-4-amine], the midpoint of inhibition, the IC50, lay at 0.492 µM. Compared with the last compound, the IC50 is about 3.9-fold higher.

Compound `Cc1cn(C)c(-c2ccc3ncnc(N[C@H]4CC[C@H](N5CCOCC5)CC4)c3c2)n1` [Example 2-23, 6-(1,4-dimethyl-1H-imidazol-2-yl)-N-[trans-4-(morpholin-4-yl)cyclohexyl]quinazolin-4-amine] registered an IC50 of 1.19 µM.

The values above are taken from patent publication US9969749B2, “Inhibitors of IRAK4 activity” (MERCK SHARP & DOHME CORP., priority 2014, dated 2018).
